Test results from paper PMC6332004, “Transport of Twelve Coumarins from Angelicae Pubescentis Radix across a MDCK-pHaMDR Cell Monolayer—An in Vitro Model for Blood-Brain Barrier Permeability” (Molecules, 2015).
Read-outs that look alike come from different tables or passages of the source.

What was measured:
in vitro = details: dog, MDCK-MDR1, pH 7.4
Procedure: (§1) 10 mM stock solutions of test compounds were prepared in DMSO and diluted with HBSS to the desired concentrations before transport experiments. HBSS (pH 7.4) was used as a transport medium. After washing the MDCK-pHaMDR cell monolayer twice with prewarmed HBSS medium, HBSS medium was preserved to prepare samples of the calibration curves. Then the experiments were carried out by replacing the transport medium in the AP side (0.5 mL, for absorption transport) or BL side (1.5 mL, for efflux transport) with test compounds (50 µM). The plates were shaked at 55 rpm for 90 min at 37 °C in a water bath. Samples were collected from both sides of the cell monolayer, then immediately frozen, lyophilized and preserved below −20 °C. To measure the intracellular accumulation amounts of different coumarins, the cell monolayers were extracted after transport assays with 200 µL 70% MeOH (v/v) for 20 min, then centrifuged and preserved below −20 °C.
(§2) An Agilent 1100 series HPLC system (Agilent Technologies, Palo Alto, CA, USA) was used with an analytical Diamonsil® C18 column (250 mm × 4.6 mm, 5 µm, Dikma, Beijing, China) equipped with a C18 guard column (8 mm × 4 mm, 5 µm, Dikma). […] The flow rate was 1.0 mL/min. Elution peaks were monitored and the peak areas were used to calculate the compound concentrations.
(§3) Papp in AP-BL or BL-AP direction of each coumarin was calculated from the following equation: (2) Papp=dQ/dt·A·C0 [cm/s] where Q is the accumulation quantity of the compound in the receiver side (μmol), dQ/dt is the linear appearance rate of the compound in the receiver side (μmol/s), C0 is the initial concentration in the donor side (μM), and A is the surface area of the membrane insert (cm^2). Data were expressed as the mean ± SD.

[1] = Cell accumulation and total recovery of coumarins in the bidirectional transport experiment; details: dog
Procedure: as §1
(§4) To determine the corresponding coumarins, the lyophilized permeation samples were dissolved in a suitable volume of MeOH, thoroughly vortex-mixed for 1 min and then centrifuged at 16,000× g for 20 min. An aliquot of 20 µL supernatant solution was used for HPLC assay. To measure the intracellular accumulation amount of different coumarins, the aliquots of cell extractions were determined too.
(§5) CA (Cell accumulation): the percent of the coumarins that accumulated in the cell monolayer after transport
(§6) experiment relative to the initial amount. TR (Total recovery): the percent of the total amount of the coumarins
(§7) recovered from both sides of the inserts and intracellular accumulation in MDCK-pHaMDR cell monolayer
(§8) relative to the initial amount. N.D.: not detected. The concentration of all coumarins was 50 µM.
(§9) incubation time was up to 90 min. Data are means ± S.D. (n = 6).

[2] = tested on: MDCK-pHaMDR cell monolayer; details: dog, 90 min, 50 µM, pH 7.4
Procedure: as §1, §4, §5, §6, §7, §8, §9

[3] = tested on: MDCK-pHaMDR cell monolayer; test: Cell accumulation and total recovery of coumarins in the bidirectional transport experiment; details: 50 µM, 90 min, percent of initial amount, n = 6
Procedure: as §1, §4, §5, §6, §7, §8, §9

P-gp [4] = test: Rh123 intracellular accumulation in MDCK-pHaMDR cells with or without verapamil; format: cell-based; details: Rh123 10 µM
Procedure: The fluorescence at 485 nm (excitation wavelength) and 538 nm (emission wavelength) was determined on a Cary Eclipse Fluorescence spectrophotometer (Varian Inc., Palo Alto, CA, USA). To investigate intracellular accumulations of Rh123 as a probe substrate for P-gp, MDCK-pHaMDR cells were seeded on the 6 Wells plates at a density of about 1.0 × 10^5 cells/mL and grew for 48 h. Before the uptake experiments, cells were washed with PBS two times and pre-incubated with serum-free DMEM or 100 µM verapamil for 20 min. Rh123 with the final concentration of 10 µM was added, and cells were incubated with or without the presence of verapamil for 60 min at 37 °C. Then cells were washed with ice-cold PBS three times, and lysed with 0.1% (v/v) Triton X-100 for 15 min at 37 °C [33]. The fluorescence of Rh123 in cell lysates was determined as described above.

P-gp [5] = test: in vitro; details: dog, not told
Procedure: The P-gp expression level in the MDCK-pHaMDR cell monolayer was examined by Rh123 transport and intracellular accumulation experiments. Rh123 (10 µM) bidirectional transports with or without the presence of verapamil (100 µM) were undertaken as described above, and the lyophilized permeation samples were dissolved in a proper volume of MeOH. The fluorescence at 485 nm (excitation wavelength) and 538 nm (emission wavelength) was determined on a Cary Eclipse Fluorescence spectrophotometer (Varian Inc., Palo Alto, CA, USA).

[6] = tested on: MDCK-pHaMDR cell monolayer; test: Bidirectional transport across MDCK-pHaMDR cell monolayer (in vitro BBB model); details: AP to BL; coumarins 50 µM, caffeine 10 µM, atenolol 200 µM; 90 min; mean ± S.D., n = 6
Procedure: as §1, §2, §3

[7] = MDCK-pHaMDR cell monolayer, pH 7.4, TR (Total recovery) AP→BL, AP→BL, 50 µM, 90 min, percent of initial amount, n = 6
[8] = MDCK-pHaMDR cell monolayer, pH 7.4, TR (Total recovery) BL→AP, BL→AP, 50 µM, 90 min, percent of initial amount, n = 6

SMILES	Papp A→B at 90 min (in vitro) [×10⁻⁶ cm/s]	Papp B→A at 90 min, 50 µM (in vitro) [×10⁻⁶ cm/s]	recovery at 90 min, 50 µM [1, 7] [%]	recovery at 90 min, 50 µM [1, 8] [%]	efflux ratio at 90 min, 50 µM (in vitro)	CA (Cell accumulation) AP→BL [3] [%]	CA (Cell accumulation) BL→AP [3] [%]	other results
O=c1ccc2ccc(O)cc2o1 [Compound 1, umbelliferone]	35.9 ± 2.28	32.8 ± 1.25	99.3 ± 1.59	96.7 ± 3.22				
COc1ccc2ccc(=O)oc2c1CC=C(C)C [Compound 2, osthol]	23.8 ± 1.44	20.4 ± 3.04	105 ± 5.15	95.6 ± 1.75				CA (Cell accumulation) AP→BL [2]: 6.96 ± 1.50%; CA (Cell accumulation) BL→AP [2]: 3.51 ± 0.68%
COc1cc2ccc(=O)oc2cc1O [Compound 3, scopoletin]	37.1 ± 1.97	27.4 ± 3.51	87.5 ± 3.3	92.2 ± 3.16	0.96			
COc1c2occc2cc2ccc(=O)oc12 [Compound 8, xanthotoxin]								recovery at 90 min, 50 µM ([1]; pH 7.4, TR (Total recovery) AP→BL, AP→BL, 50 µM, 90 min, percent of initial amount, n = 6): 95.2 ± 4.79%; recovery at 90 min, 50 µM ([1]; pH 7.4, TR (Total recovery) BL→AP, BL→AP, 50 µM, 90 min, percent of initial amount, n = 6): 88.7 ± 3.13%
COC(=O)c1ccccc1-c1c2ccc(=N)cc-2oc2cc(N)ccc12 [Rh123, Rhodamine 123]								intracellular accumulation with verapamil relative to verapamil-absent group (P-gp [4]; 100 µM verapamil): 4.45 fold; Intracellular Accumulation Fluorescence Intensity (P-gp [4]; 60 min, without verapamil, n = 4): 34.51 ± 1.18; Papp A→B at 90 min, 10 µM (P-gp [5]; pH 7.4): 1.18 ± 0.056 ×10⁻⁶ cm/s; Papp B→A at 90 min, 10 µM (P-gp [5]; pH 7.4): 5.27 ± 0.209 ×10⁻⁶ cm/s; efflux ratio at 90 min, 10 µM (P-gp [5]; pH 7.4): 4.47 ± 0.24; efflux ratio at 90 min, 10 µM (P-gp [5]; pH 7.4, with verapamil 100 µM): 1.58
Cn1c(=O)c2c(ncn2C)n(C)c1=O [caffeine, reference compound]	43.6							Papp AP-BL [6]: 43.58 ± 4.86 ×10^−6 cm/s

Now from value to compound, other results behind:

Papp A→B at 90 min (in vitro) [×10⁻⁶ cm/s]	Papp B→A at 90 min, 50 µM (in vitro) [×10⁻⁶ cm/s]	recovery at 90 min, 50 µM [1, 7] [%]	recovery at 90 min, 50 µM [1, 8] [%]	efflux ratio at 90 min, 50 µM (in vitro)	CA (Cell accumulation) AP→BL [3] [%]	CA (Cell accumulation) BL→AP [3] [%]	SMILES	other results
27.3 ± 2.35	26.8 ± 2.75	89.9 ± 6.49	94.7 ± 3.85	0.98	4.63 ± 0.13	1.79 ± 0.03	O=c1ccc2cc3ccoc3cc2o1 [Compound 7, psoralen]	
43.6 ± 2.13	37.4 ± 5.81	99.15 ± 0.54	107 ± 1.19	0.86			COc1c2ccoc2cc2oc(=O)ccc12 [Compound 9, bergapten]	
7.29 ± 0.17	3.73 ± 0.33	90.2 ± 3.08	86.6 ± 2.89		5.38 ± 1.14	1.65 ± 0.36	CC(C)=CCOc1c2ccoc2cc2oc(=O)ccc12 [Compound 10, isoimperatorin]	
10.4 ± 0.95	7.12 ± 0.12	67.6 ± 5	64.1 ± 3.63		21.49 ± 4.56	9.44 ± 1.01	C/C=C(/C)C(=O)OC(C)(C)[C@@H]1Cc2c(ccc3ccc(=O)oc23)O1 [Compound 11, columbianadin]	recovery at 90 min, 50 µM ([1]; MDCK-pHaMDR cell monolayer, pH 7.4, recovery (both sides of the insert and intracellular), both directions): 64 to 68%
